Tests used:
[1] = tested on: Penicillium expansum (PENIEX) on table grapes; assay: In vivo disease severity on wound-inoculated table grapes, benzoxaborole and CO2 chamber treatment
Description: (§1) The following experiments were used to determine synergy between benzoxaborole Compounds A, B, and/or C and preservative gases, such as carbon dioxide (CO2) and sulfur dioxide (SO2). Specific rates or any other unique conditions are noted within the corresponding results tables. Each experiment comprised an air-tight 36 liter (L) chamber (Fisher Scientific, P/N: 08-642-23C), fitted with a bulkhead septum port (Swagelok, P/N: SS-400-61, Solon, OH) used for treatment delivery, as well as for monitoring (using needle extraction) carbon dioxide (CO2), sulfur dioxide (SO2), oxygen (O2) or other headspace samples. A variable speed fan (Thermaltake, Mobile Fan II, P/N: A1888, Taipei City, Taiwan) set to low was also used to circulate the headspace atmosphere.
(§2) Similarly, table grape fruits were also tested in vivo. More specifically, 16-20 table grapes per repetition were washed and inoculated with pathogens (as described above for the strawberries). However, an ethanol-sterilized push pin, rather than a T15 screwdriver, was used to wound the stem-end of the grapes. The grapes were inoculated in the wound, and then arranged inside a 1-pint clamshell.
(§3) For treatment, the inoculated agar plates and clamshells containing fruits (e.g., strawberries and grapes) were placed inside a 36 L experimental chamber unit, which was then sealed prior to commencement of compound treatments. The chamber remained sealed throughout the duration of the experiment except for addition of treatment to the chamber, and post-treatment ventilation.
(§4) Benzoxaborole Compound A or Compound B was dissolved in acetone and dispensed onto a 60 mm Whatman #1 filter paper disk using a pipette. The acetone was permitted to evaporate for five minutes before the disk was placed on a watch glass in each chamber.
(§5) A 12% CO2 headspace treatment was then established in the chamber by permitting 10 grams (g) of crushed dry ice placed in a weigh boat in the chamber to evaporate in the sealed chamber. However, the bulkhead port of the chamber was loosened to permit the release of internal pressure. Optionally, a fan was used during the initial hours of treatment (i.e., up to about 6 hours of treatment) to ensure uniform treatment exposure of fruits and plates.
(§6) Untreated controls and CO2 treated chambers contained an acetone-treated disk with similar evaporation for five minutes. CO2 and O2 levels in the chamber were monitored using a handheld gas detector (Dansensor Checkpoint II; P/N 600111, Ringsted, Denmark). Temperature and relative humidity were also monitored within the chamber using data loggers (Onset HOBO; P/N U12-013, Bourne, MA).
(§7) The chamber for all in vitro and in vivo experiments was held at room temperature (i.e., from about 21° C. to about 23° C.) typically for about 3.5 days (i.e., about 84 hours) of treatment exposure. Chambers were then vented. After an additional 2-3 days with the chamber at room temperature, post-treatment radial growth (in mm) of each in vitro pathogen (see Examples 1-7, Tables 1-7) was measured on the inoculated plates using electronic calipers (Mitutoyo, P/N: CD-6-CX, Aurora, IL). In addition, the point of inoculation on fruits was assessed for indication of in vivo disease incidence (e.g., yes or no) and severity of disease incidence (see Examples 8-16, Tables 8-16). Disease severity was rated on a scale ranging from 0 to 4, where “0” indicated no disease severity, “1” indicated minimal disease severity, “2” indicated medium disease severity, “3” indicated high disease severity, and “4” indicated exceptionally high disease severity. […]

[2] = tested on: Botrytis cinerea (BOTRCI) on table grapes; assay: as above
Description: as §1, §2, §3, §4, §5, §6, §7

[3] = tested on: Botrytis cinerea (BOTRCI) on strawberries; assay: In vivo disease severity on wound-inoculated strawberries, benzoxaborole and CO2 chamber treatment
Description: as §1
For in vivo experiments, eight strawberry fruits per repetition were surface sterilized with a 70% ethanol solution. After sterilization, the strawberries were rinsed twice with deionized water. Each strawberry fruit was wounded using a T15 screwdriver tip to a uniform depth of eight mm (8 mm). Each fruit wound was inoculated with 20 μL of 1×10^5 spores/ml pathogen spore suspension of B. cinerea or M. piriformis. The strawberries were then placed with the stem facing downwards inside a 1-pound strawberry clamshell.
as §3, §4, §5, §6, §7

Q: How did the “Colby Calculation” value ([1]; Table 16, compound 0.035 mg/L + 12% CO2, Colby equation E=x+y−x*y/100) turn out when `OB1OCc2cc(F)ccc21` [Compound A] was run?
A: The value was 108.2.

Q: And the “Growth (Severity, 0 to 4) Cmpd + 12% CO2” value ([1]; Table 16, compound 0.035 mg/L + 12% CO2, evaluated 1 day after treatment, fan continuous)?
A: Its value is 1.3.

Q: What about the “Growth (Severity, 0 to 4) Cmpd” value ([1]; Table 16, compound alone 0.035 mg/L, evaluated 1 day after treatment, fan continuous) of the same compound?
A: The value was 1.8.

Q: What about the “Colby Calculation” value ([2]; Table 15, compound 0.035 mg/L + 12% CO2, Colby equation E=x+y−x*y/100) of the same compound?
A: The value was 115.2.

Q: And the “Growth (Severity, 0 to 4) Cmpd + 12% CO2” value ([2]; Table 15, compound 0.035 mg/L + 12% CO2, evaluated 1 day after treatment, fan continuous)?
A: Its value is 0.7.

Q: What about the “Growth (Severity, 0 to 4) Cmpd” value ([2]; Table 15, compound alone 0.035 mg/L, evaluated 1 day after treatment, fan continuous) of the same compound?
A: The value was 0.9.

Q: What about the “Colby Calculation” value ([3]; Table 8, compound 0.14 mg/L + 12% CO2, Colby equation E=x+y−x*y/100) of the same compound?
A: Its value is 176.2.

Q: What about the “Growth (Severity, 0 to 4) Cmpd + 12% CO2” value ([3]; Table 8, compound 0.14 mg/L + 12% CO2, evaluated 2 days after treatment, 4 replicates, fan first 6 hours, >90% R.H.) of the same compound?
A: Its value is 0.4.

Q: What about the “Growth (Severity, 0 to 4) Cmpd” value ([3]; Table 8, compound alone 0.14 mg/L, evaluated 2 days after treatment, 4 replicates, fan first 6 hours, >90% R.H.) of the same compound?
A: The value was 2.1.

Q: What about the “Colby Calculation” value ([3]; Table 9, compound 0.14 mg/L + 12% CO2, Colby equation E=x+y−x*y/100) of the same compound?
A: The value was 107.6.

Q: What about the “Growth (Severity, 0 to 4) Cmpd + 12% CO2” value ([3]; Table 9, compound 0.14 mg/L + 12% CO2, evaluated 3 days after treatment, fan first 6 hours, >90% R.H.) of the same compound?
A: The value was 0.8.

Q: And the “Growth (Severity, 0 to 4) Cmpd” value ([3]; Table 9, compound alone 0.14 mg/L, evaluated 3 days after treatment, fan first 6 hours, >90% R.H.)?
A: The value was 1.1.

Q: And the “Colby Calculation” value ([3]; Table 11, compound 0.14 mg/L + 12% CO2, Colby equation E=x+y−x*y/100)?
A: Its value is 109.0.

Q: What about the “Growth (Severity, 0 to 4) Cmpd + 12% CO2” value ([3]; Table 11, compound 0.14 mg/L + 12% CO2, evaluated 2 days after treatment, fan first 6 hours, >90% R.H.) of the same compound?
A: The value was 0.8.

Q: And the “Growth (Severity, 0 to 4) Cmpd” value ([3]; Table 11, compound alone 0.14 mg/L, evaluated 2 days after treatment, fan first 6 hours, >90% R.H.)?
A: Its value is 1.4.

Q: And the “Colby Calculation” value ([3]; Table 12, compound 0.14 mg/L + 12% CO2, Colby equation E=x+y−x*y/100)?
A: The value was 107.9.

Q: And the “Growth (Severity, 0 to 4) Cmpd + 12% CO2” value ([3]; Table 12, compound 0.14 mg/L + 12% CO2, evaluated 2 days after treatment, fan first 6 hours, >90% R.H.)?
A: Its value is 0.4.

Q: What about the “Growth (Severity, 0 to 4) Cmpd” value ([3]; Table 12, compound alone 0.14 mg/L, evaluated 2 days after treatment, fan first 6 hours, >90% R.H.) of the same compound?
A: The value was 0.7.

Q: And the “Colby Calculation” value ([3]; Table 13, compound 0.14 mg/L + 12% CO2, Colby equation E=x+y−x*y/100)?
A: Its value is 163.4.

Q: What about the “Growth (Severity, 0 to 4) Cmpd + 12% CO2” value ([3]; Table 13, compound 0.14 mg/L + 12% CO2, evaluated 3 days after treatment, fan run continuously) of the same compound?
A: The value was 1.4.

Q: What about the “Growth (Severity, 0 to 4) Cmpd” value ([3]; Table 13, compound alone 0.14 mg/L, evaluated 3 days after treatment, fan run continuously) of the same compound?
A: Its value is 2.4.

Q: And the “Colby Calculation” value ([3]; Table 14, compound 0.0044 mg/L + 12% CO2, Colby equation E=x+y−x*y/100)?
A: The value was 114.8.

Q: And the “Growth (Severity, 0 to 4) Cmpd + 12% CO2” value ([3]; Table 14, compound 0.0044 mg/L + 12% CO2, evaluated 3 days after treatment, fan continuous)?
A: Its value is 3.2.

Q: And the “Colby Calculation” value ([3]; Table 14, compound 0.0088 mg/L + 12% CO2, Colby equation E=x+y−x*y/100)?
A: Its value is 502.5.

Q: And the “Growth (Severity, 0 to 4) Cmpd + 12% CO2” value ([3]; Table 14, compound 0.0088 mg/L + 12% CO2, evaluated 3 days after treatment, fan continuous)?
A: Its value is 0.6.

Q: And the “Growth (Severity, 0 to 4) Cmpd” value ([3]; Table 14, compound alone 0.0044 mg/L, evaluated 3 days after treatment, fan continuous)?
A: The value was 3.4.

Q: And the “Growth (Severity, 0 to 4) Cmpd” value ([3]; Table 14, compound alone 0.0088 mg/L, evaluated 3 days after treatment, fan continuous)?
A: Its value is 3.3.

Reference: patent publication US12213485B2, “Synergistic methods of using benzoxaborole compounds and preservative gases as an antimicrobial for crops” (AGROFRESH INC., priority 2016, dated 2025)
